Publication PMC6277767, “Broad and Region-Specific Impacts of the Synthetic Cannabinoid CP 55,940 in Adolescent and Adult Female Mouse Brains” (Frontiers in Molecular Neuroscience, 2018)

System: CD1 female mouse brain lipidome
Assay: Brain-region lipid levels (HPLC/MS/MS lipidomics) 2 h after single i.p. 3 mg/kg CP 55,940 vs vehicle
Type: in vivo
Parameters: N-arachidonoyl phenylalanine level, Mean / N-stearoyl tryptophan level, Mean / N-stearoyl proline level, Mean / N-stearoyl leucine level, Mean / N-stearoyl phenylalanine level, Mean / N-stearoyl serine level, Mean / N-stearoyl methionine level, Mean: unit: moles per gram
Method: The Bloomington Institutional Animal Care and Use Committee of Indiana University reviewed and approved the animal procedures. Female mice from the CD1 strain were utilized to match our study examining THC’s effects on the brain lipidome ([Leishman et al., 2018]). Mice were given a single i.p. injection of either 3 mg/kg CP or 1:1:18 cremophor:ethanol:saline vehicle (please refer to the section “3 mg/kg CP Is Relevant for Synthetic Cannabinoid Abuse and Has Stronger Effects on the Female Mouse Brain Lipidome During Adolescence” for a justification of dose and use of female mice). Three different age groups were given injections: PND 35 and PND 50 adolescents, and adult mice (PND 113). At least eight mice in each age group received CP and at least eight received vehicle. Matching the THC study time course ([Leishman et al., 2018]), mice were sacrificed via rapid decapitation 2 h after injection. Brains were immediately removed and flash-frozen in liquid nitrogen, and then stored at -80°C until dissections were performed. Brains were dissected on an ice-cold dissection plate into the following regions: STR, HIPP, CER, THAL, CTX, HYP, MID, and STEM. These abbreviations for these brain areas will be used exclusively when discussing the results generated by these specific dissections. Each dissected area was immediately placed in liquid nitrogen and then stored at -80°C until used for lipid extraction.
Tissue extracts were performed as previously described ([Bradshaw et al., 2006]; [Stuart et al., 2013]; [Raboune et al., 2014]; [Leishman et al., 2016a],[b], [2017], [2018]). First, samples were shock frozen in liquid nitrogen, weighed, and transferred to a centrifuge tube. The mass of the largest sample was multiplied by 50 to determine how many milliliters of HPLC-grade methanol (Fisher, Fair Lawn, NJ, United States) to add. Then, samples were spiked with 500 pmol deuterium-labeled NAGly (d8NAGly; Cayman Chemical, Ann Arbor, MI, United States). Samples were placed on ice in darkness for 2 h then individually homogenized and centrifuged at 19,000 × g for 20 min at 20°C. Supernatants were diluted with HPLC water (purified in house) to make a solution of 75% water, 25% supernatant. Lipids were partially purified on C18 solid phase extraction columns (Agilent, Palo Alto, CA, United States). A series of four elutions with 1.5 mL of 60%, 75%, 85%, and 100% methanol were collected ([Stuart et al., 2013]; [Leishman et al., 2016a],[b], [2018]).
As previously described ([Bradshaw et al., 2006]; [Tan et al., 2006]; [Smoum et al., 2010]; [Stuart et al., 2013]; [Tortoriello et al., 2013]; [Raboune et al., 2014]; [Leishman et al., 2016a],[b], [2017], [2018]), samples were analyzed using an Applied Biosystems API 3000 triple quadrupole mass spectrometer with electrospray ionization (Foster City, CA, United States). Using an Agilent XDB-C18 reversed phase analytical column and optimized mobile phase gradients, 20 μL from each elution were chromatographed. Two Shimadzu 10ADvp pumps (Columbia, MD, United States) provided the pressure for gradient elution. Mobile phase A: 20% methanol, 80% water (v/v) and 1 mM ammonium acetate (Sigma, St. Louis, MO, United States). Mobile phase B: 100% methanol, 1 mM ammonium acetate. Every method run began with 0% mobile phase B, reached 100% mobile phase B flowing at 0.2 mL/min, and gradually returned to 0% mobile phase B.
This screening library will be referred to as the lipidome when discussing data from this study. HPLC/MS/MS data were analyzed using Analyst software (Applied Biosystems) ([Bradshaw et al., 2006]; [Tan et al., 2006]; [Stuart et al., 2013]; [Tortoriello et al., 2013]; [Raboune et al., 2014]; [Leishman et al., 2016a],[b], [2017], [2018]). Chromatograms (Supplementary Figure 3) were generated by determining the retention time of analytes from the analytical column with a [M-1] or [M+1] parent peak and a fragmentation peak corresponding to the programmed values. […]

[1] = adult female mice, brainstem, 3mg/kg CP 55,940
[2] = adult hypothalamus, 3 mg/kg CP 55,940

In the case of CCCCCCC(C)(C)c1ccc([C@@H]2C[C@H](O)CC[C@H]2CCCO)c(O)c1 [CP 55,940], the “6-ketoPGF1α level, Mean” value [1] is reported as 2.07E-11, the “Arachidonic acid level, Mean” value [1] is reported as 4.08E-10 and the “Linoleic acid level, Mean” value [1] is reported as 4.56E-10. For the same molecule, the “N- stearoyl valine level, Mean” value [1] was 2.21E-14, the “N-arachidonoyl proline level, Mean” value [1] was “BDL” and the “N-arachidonoyl serine level, Mean” value [1] was “PISSR”. For the same molecule, the “N-arachidonoyl taurine level, Mean” value [1] was 2.62E-11, the “N-arachidonoyl tryptophan level, Mean” value [1] was “BDL” and the “N-arachidonoyl tyrosine level, Mean” value [1] was 6.33E-13. The “N-docosahexaenoyl proline level, Mean” value [1] was “BDL”, the “N-docosahexaenoyl serine level, Mean” value [1] was “PISSR” and the “N-docosahexaenoyl tryptophan level, Mean” value [1] was “BDL”. The “N-docosahexaenoyl tyrosine level, Mean” value [1] was 5.03E-13, the “N-docosahexaenoyl valine level, Mean” value [1] was “BDL” and the “N-linoleoyl proline level, Mean” value [1] was “BDL”. The “N-linoleoyl serine level, Mean” value [1] was 1.98E-11, the “N-linoleoyl tryptophan level, Mean” value [1] was “BDL” and the “N-linoleoyl tyrosine level, Mean” value [1] was “PISSR”. The “N-linoleoyl valine level, Mean” value [1] was “PISSR”, the “N-nervonoyl valine level, Mean” value [1] was “BDL” and the “N-oleoyl proline level, Mean” value [1] was “BDL”. The “N-oleoyl serine level, Mean” value [1] was 1.03E-10, the “N-oleoyl tryptophan level, Mean” value [1] was “BDL” and the “N-oleoyl tyrosine level, Mean” value [1] was 5.06E-13. For the same molecule, the “N-oleoyl valine level, Mean” value [1] was 1.48E-14, the “N-palmitoyl proline level, Mean” value [1] was “BDL” and the “N-palmitoyl serine level, Mean” value [1] was 1.08E-11. For the same molecule, the “N-palmitoyl tryptophan level, Mean” value [1] was “BDL”, the “N-palmitoyl tyrosine level, Mean” value [1] was 7.4E-13 and the “N-palmitoyl valine level, Mean” value [1] was 1.28E-13. The “N-stearoyl proline level, Mean” value [1] was “BDL”, the “N-stearoyl serine level, Mean” value [1] was 1.31E-11 and the “N-stearoyl tryptophan level, Mean” value [1] was “BDL”. For the same molecule, the “Oleic acid level, Mean” value [1] was 4.28E-10, the “PGE2 level, Mean” value [1] was 1.64E-10 and the “PhosphoLEA level, Mean” value [1] was 2.15E-12. The “2-arachidonoyl glycerol level, Mean” value [2] was 2.11E-09, the “2-linoleoyl glycerol level, Mean” value [2] was 1.7E-10 and the “2-oleoyl glycerol level, Mean” value [2] was 1.71E-09. For the same molecule, the “2-palmitoyl glycerol level, Mean” value [2] was 1.78E-10, the “6-ketoPGF1α level, Mean” value [2] was 2.15E-11 and the “11-OH-THC level, Mean” value [2] was “BDL”. For the same molecule, the “11-nor-9-carboxyTHC level, Mean” value [2] was “BDL”, the “Arachidonic acid level, Mean” value [2] was 6.14E-10 and the “Cannabidiol level, Mean” value [2] was “BDL”. The “Linoleic acid level, Mean” value [2] was 1.2E-10, the “N-arachidonoyl GABA level, Mean” value [2] was 2.05E-11 and the “N-arachidonoyl dopamine level, Mean” value [2] was “BDL”. The “N-arachidonoyl ethanolamine level, Mean” value [2] was 6.61E-12, the “N-arachidonoyl glycine level, Mean” value [2] was 2.96E-13 and the “N-arachidonoyl methionine level, Mean” value [2] was “BDL”. The “N-arachidonoyl phenylalanine level, Mean” value [2] was 1.34E-13, the “N-arachidonoyl proline level, Mean” value [2] was “BDL” and the “N-arachidonoyl serine level, Mean” value [2] was “BDL”. For the same molecule, the “N-arachidonoyl taurine level, Mean” value [2] was 1.91E-11, the “N-arachidonoyl tryptophan level, Mean” value [2] was “BDL” and the “N-docosahexaenoyl ethanolamine level, Mean” value [2] was 1.18E-11. For the same molecule, the “N-docosahexaenoyl methionine level, Mean” value [2] was “BDL”, the “N-docosahexaenoyl proline level, Mean” value [2] was “BDL” and the “N-docosahexaenoyl tryptophan level, Mean” value [2] was “BDL”. The “N-docosahexaenoyl valine level, Mean” value [2] was “BDL”, the “N-linoleoyl GABA level, Mean” value [2] was “BDL” and the “N-linoleoyl ethanolamine level, Mean” value [2] was 6.58E-12. The “N-linoleoyl methionine level, Mean” value [2] was “BDL”, the “N-linoleoyl proline level, Mean” value [2] was “BDL” and the “N-linoleoyl serine level, Mean” value [2] was 1.16E-10. The “N-linoleoyl tryptophan level, Mean” value [2] was “BDL”, the “N-linoleoyl tyrosine level, Mean” value [2] was “BDL” and the “N-linoleoyl valine level, Mean” value [2] was “BDL”. For the same molecule, the “N-nervonoyl valine level, Mean” value [2] was “BDL”, the “N-oleoyl alanine level, Mean” value [2] was 4.79E-12 and the “N-oleoyl dopamine level, Mean” value [2] was “BDL”. For the same molecule, the “N-oleoyl ethanolamine level, Mean” value [2] was 7.29E-11, the “N-oleoyl glycine level, Mean” value [2] was 2.66E-13 and the “N-oleoyl methionine level, Mean” value [2] was “BDL”. The “N-oleoyl phenylalanine level, Mean” value [2] was 5E-13, the “N-oleoyl proline level, Mean” value [2] was “BDL” and the “N-oleoyl serine level, Mean” value [2] was 5.82E-10. The “N-oleoyl tryptophan level, Mean” value [2] was “BDL”, the “N-palmitoyl GABA level, Mean” value [2] was 3.12E-11 and the “N-palmitoyl alanine level, Mean” value [2] was 2.7E-12. The “N-palmitoyl ethanolamine level, Mean” value [2] was 2.56E-11, the “N-palmitoyl glycine level, Mean” value [2] was 2.34E-12 and the “N-palmitoyl leucine level, Mean” value [2] was 1.88E-12. The “N-palmitoyl methionine level, Mean” value [2] was “BDL”, the “N-palmitoyl phenylalanine level, Mean” value [2] was 3.42E-13 and the “N-palmitoyl proline level, Mean” value [2] was “BDL”. The “N-palmitoyl tryptophan level, Mean” value [2] was “BDL”, the “N-palmitoyl tyrosine level, Mean” value [2] was 1.11E-12 and the “N-palmitoyl valine level, Mean” value [2] was 1.56E-13. For the same molecule, the “N-stearoyl alanine level, Mean” value [2] was 2.77E-12, the “N-stearoyl ethanolamine level, Mean” value [2] was 7.07E-12 and the “N-stearoyl glycine level, Mean” value [2] was 2.2E-12. The “N-stearoyl leucine level, Mean” value [2] was 1.65E-12, the “N-stearoyl methionine level, Mean” value [2] was “BDL” and the “N-stearoyl phenylalanine level, Mean” value [2] was 2.86E-13. For the same molecule, the “N-stearoyl proline level, Mean” value [2] was “BDL”, the “N-stearoyl serine level, Mean” value [2] was 4.88E-11 and the “N-stearoyl tryptophan level, Mean” value [2] was “BDL”. The “Oleic acid level, Mean” value [2] was 2.14E-10, the “PGE2 level, Mean” value [2] was 2.25E-10 and the “PhosphoLEA level, Mean” value [2] was 5.73E-11.
